In ChEMBL document CHEMBL1201862, “PubChem BioAssay data set” (2004):
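Compound exposure: 48 hours, 5 concentrations, 96-well plates. GI50: concentration for 50% inhibition of growth.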 Calls of active or inactive are those of the source. No stated cut-off is given here; in the data, active = GI50 up to about 1.1 µM and inactive = higher.

Key:
Assay in all cases: DTP human tumour cell line panel, 48 h
[1] = test system: A549
[2] = test system: SF-295
[3] = test system: NCI/ADR-RES
[4] = test system: A498
[5] = test system: COLO 205
[6] = test system: SW-620
[7] = test system: SNB-19
[8] = test system: SF-539
[9] = test system: KM12
[10] = test system: M14
[11] = test system: SNB-75
[12] = test system: OVCAR-8
[13] = test system: OVCAR-3
[14] = test system: ACHN
[15] = test system: HCT-15
[16] = test system: UO-31
[17] = test system: MDA-MB-435
[18] = test system: MDA-N
[19] = test system: HCT-116
[20] = test system: CAKI-1

Row | Structure (SMILES) | GI50 [1] | GI50 [2] | GI50 [3] | GI50 [4] | GI50 [5] | GI50 [6] | GI50 [7] | GI50 [8] | GI50 [9] | GI50 [10] | GI50 [11] | GI50 [12] | GI50 [13] | GI50 [14] | GI50 [15] | GI50 [16] | GI50 [17] | GI50 [18] | GI50 [19] | GI50 [20]
1 | Cn1ccnc1CCc1ccc(F)cc1F | > 100 µM (inactive) | > 100 µM (inactive) | > 100 µM (inactive) | > 100 µM (inactive) | > 100 µM (inactive) | > 100 µM (inactive) | > 100 µM (inactive) | > 100 µM (inactive) | > 100 µM (inactive) | > 100 µM (inactive) | > 100 µM (inactive) | > 100 µM (inactive) | > 100 µM (inactive) | > 100 µM (inactive) | > 100 µM | > 100 µM (inactive) | > 100 µM (inactive) | > 100 µM (inactive) |  | 
2 | O=C(O)C1CCCCN1CCc1c[nH]c2ccccc12 (stereo not given) | > 100 µM (inactive) | > 100 µM (inactive) | > 100 µM (inactive) |  | > 100 µM (inactive) | > 100 µM (inactive) | > 100 µM (inactive) | > 100 µM (inactive) | > 100 µM (inactive) | > 100 µM (inactive) | > 100 µM (inactive) | > 100 µM (inactive) | > 100 µM (inactive) | > 100 µM (inactive) | > 100 µM |  | > 100 µM (inactive) | > 100 µM (inactive) | > 100 µM (inactive) | > 100 µM (inactive)
3 | CCOC(=O)C1(C)CCCc2sc(N)c(C#N)c21 (stereo not given) | > 100 µM (inactive) |  |  | > 100 µM (inactive) | > 100 µM (inactive) | > 100 µM (inactive) | > 100 µM (inactive) |  | > 100 µM (inactive) | > 100 µM (inactive) | 69 µM (inactive) | > 100 µM (inactive) |  | > 100 µM (inactive) | > 100 µM | > 100 µM (inactive) |  | > 100 µM (inactive) | > 100 µM (inactive) | 
4 | O/N=C/[C@H]1COC2(CCCCC2)O1 | > 100 µM (inactive) | > 100 µM (inactive) | > 100 µM (inactive) | > 100 µM (inactive) | > 100 µM (inactive) | > 100 µM (inactive) | > 100 µM (inactive) |  | > 100 µM (inactive) | > 100 µM (inactive) | > 100 µM (inactive) | > 100 µM (inactive) | > 100 µM (inactive) | > 100 µM (inactive) | > 100 µM | > 100 µM (inactive) | > 100 µM (inactive) | > 100 µM (inactive) | > 100 µM (inactive) | 
5 | Cc1ccc(/C=C/C(=O)Oc2ccc(/C=C3\CCC/C(=C\c4ccc(OC(=O)/C=C/c5ccc(C)cc5)cc4)C3=O)cc2)cc1 | > 100 µM (inactive) | 25.1 µM (inactive) | 59.3 µM (inactive) |  | > 100 µM (inactive) | > 100 µM (inactive) | 56.8 µM (inactive) | 21.3 µM (inactive) | > 100 µM (inactive) | > 100 µM (inactive) | 14.2 µM (inactive) | 67.1 µM (inactive) | > 100 µM (inactive) | 37.3 µM (inactive) | > 100 µM | > 100 µM (inactive) | > 100 µM (inactive) | > 100 µM (inactive) | > 100 µM (inactive) | 79.8 µM (inactive)
6 | CCOC(=O)N1CCC2C(=C(C)C(C)C3=C2C(=O)c2ccccc2C3=O)C1 (stereo not given) | 4.3 µM (inactive) | 3.82 µM (inactive) |  |  | 3.33 µM (inactive) | 3.61 µM (inactive) |  |  | 5.81 µM (inactive) | 4.73 µM (inactive) | 3.75 µM (inactive) | 6.18 µM (inactive) |  |  | 3.88 µM |  | 2.25 µM (inactive) | 3.33 µM (inactive) |  | 4.73 µM (inactive)
7 | O=C(ON=c1c2ccccc2ccc2ccccc12)c1ccccc1 | 29.7 µM (inactive) | 35.7 µM (inactive) | 21.2 µM (inactive) | 22.1 µM (inactive) | 18.1 µM (inactive) | 18.1 µM (inactive) | 26.1 µM (inactive) | 15.5 µM (inactive) | 11.8 µM (inactive) | 18.1 µM (inactive) | 26.5 µM (inactive) | 27.4 µM (inactive) | 23.5 µM (inactive) | 34.9 µM (inactive) | 29.7 µM | 25.5 µM (inactive) | 20.7 µM (inactive) |  | 13.9 µM (inactive) | 24.4 µM (inactive)
8 | CSc1nc2c(=O)n(-c3ccccc3)c(=S)n(-c3ccccc3)c2s1 | > 100 µM (inactive) | 97.5 µM (inactive) | 85.1 µM (inactive) |  | > 100 µM (inactive) | > 100 µM (inactive) | 14.2 µM (inactive) | 39.9 µM (inactive) | 49 µM (inactive) | 70 µM (inactive) | 41.6 µM (inactive) | > 100 µM (inactive) | 67 µM (inactive) | 45.4 µM (inactive) | > 100 µM | > 100 µM (inactive) | > 100 µM (inactive) | > 100 µM (inactive) | > 100 µM (inactive) | 
9 | CCOC(=O)CCCSCCCC(=O)CCCSCCCC(=O)OCC | > 100 µM (inactive) | > 100 µM (inactive) | > 100 µM (inactive) |  | > 100 µM (inactive) | > 100 µM (inactive) | > 100 µM (inactive) | > 100 µM (inactive) | > 100 µM (inactive) | > 100 µM (inactive) | > 100 µM (inactive) | > 100 µM (inactive) | > 100 µM (inactive) |  | > 100 µM | > 100 µM (inactive) | > 100 µM (inactive) | > 100 µM (inactive) | > 100 µM (inactive) | 
10 | O=C(O)/C(Cl)=C(/Cl)C(=O)Nc1cccc(Cl)c1 | 48.1 µM (inactive) | 30.5 µM (inactive) |  | > 64.1 µM (inactive) | 10.2 µM (inactive) | 12.6 µM (inactive) | 31.7 µM (inactive) | 17.6 µM (inactive) | 20.8 µM (inactive) | 18.6 µM (inactive) | 17.9 µM (inactive) | 18.7 µM (inactive) | 16.7 µM (inactive) | 18.5 µM (inactive) | 16.6 µM | 18.5 µM (inactive) | 19.2 µM (inactive) | 17.3 µM (inactive) | 16.2 µM (inactive) | 7.33 µM (inactive)
11 | C=CCOC(=O)CC[N+]1=CCC(c2ccccc2)(c2ccccc2)O1 | > 100 µM (inactive) | > 100 µM (inactive) |  | > 100 µM (inactive) | > 100 µM (inactive) | > 100 µM (inactive) | > 100 µM (inactive) | > 100 µM (inactive) | > 100 µM (inactive) | > 100 µM (inactive) |  | > 100 µM (inactive) | > 100 µM (inactive) | > 100 µM (inactive) | > 100 µM | > 100 µM (inactive) | > 100 µM (inactive) | > 100 µM (inactive) | > 100 µM (inactive) | > 100 µM (inactive)
12 | C=C[C@@H](C)[C@H](NS(=O)(=O)c1ccc(C)cc1)C(=O)OCC | 32 µM (inactive) | 21.2 µM (inactive) | 41.3 µM (inactive) | 48.5 µM (inactive) | 52.2 µM (inactive) | 40.3 µM (inactive) | 74 µM (inactive) | > 100 µM (inactive) | 28.1 µM (inactive) | 54.1 µM (inactive) | 15.3 µM (inactive) | 40.2 µM (inactive) | 20.7 µM (inactive) | 35.6 µM (inactive) | 31.3 µM | 31.3 µM (inactive) | 21.4 µM (inactive) | 28 µM (inactive) | 35.5 µM (inactive) | 
13 | CC(=O)OCc1cc(=O)n2c([nH]c3ccccc32)c1C#N | 51.9 µM (inactive) | 58.3 µM (inactive) | > 100 µM (inactive) | 69.2 µM (inactive) | 53.3 µM (inactive) | 96.6 µM (inactive) | 80.2 µM (inactive) | > 100 µM (inactive) |  | 61.8 µM (inactive) |  | > 100 µM (inactive) | 43.2 µM (inactive) | 52.4 µM (inactive) | 21.8 µM | 78.3 µM (inactive) |  | > 100 µM (inactive) | 51.3 µM (inactive) | 28.2 µM (inactive)
14 | COc1nc(C)nc2sc3c(c12)CCCC3 |  | > 100 µM (inactive) | > 100 µM (inactive) | > 100 µM (inactive) | > 100 µM (inactive) | > 100 µM (inactive) | > 100 µM (inactive) |  | > 100 µM (inactive) |  | 93.3 µM (inactive) | > 100 µM (inactive) | > 100 µM (inactive) | > 100 µM (inactive) | > 100 µM | 89.9 µM (inactive) | > 100 µM (inactive) | > 100 µM (inactive) | > 100 µM (inactive) | > 100 µM (inactive)
15 | CN(C)C(=O)C(F)(F)C(c1ccccc1Br)C1C(=O)N(C)C(=O)N(C)C1=O (stereo not given) | > 100 µM (inactive) | > 100 µM (inactive) | > 100 µM (inactive) | > 100 µM (inactive) | > 100 µM (inactive) | > 100 µM (inactive) | > 100 µM (inactive) |  | > 100 µM (inactive) | > 100 µM (inactive) | > 100 µM (inactive) | > 100 µM (inactive) | > 100 µM (inactive) | > 100 µM (inactive) | > 100 µM | > 100 µM (inactive) | > 100 µM (inactive) |  | > 100 µM (inactive) | > 100 µM (inactive)
16 | OC(c1ccsc1)c1cc2ccccc2s1 (stereo not given) | > 10 µM (inactive) | > 10 µM (inactive) | > 10 µM (inactive) |  | > 10 µM (inactive) | > 10 µM (inactive) | > 10 µM (inactive) | > 10 µM (inactive) | > 10 µM (inactive) | > 10 µM (inactive) | > 10 µM (inactive) | > 10 µM (inactive) | > 10 µM (inactive) | > 10 µM (inactive) | > 10 µM | > 10 µM (inactive) | > 10 µM (inactive) | > 10 µM (inactive) | > 10 µM (inactive) | > 10 µM (inactive)
